According to patent publication US20200171056A1, “SULFONYLUREA COMPOUNDS IN THE TREATMENT OF DISEASE ASSOCIATED WITH UV-INDUCED DAMAGE” (CeMM - Forschungszentrum für Molekulare Medizin GmbH, priority 2017, published 2020):

Columns and labels:
WT cells = assay: Cell viability of WT cells after UV exposure, comparison with antioxidant; type: cell-based, human; details: 30 μM NAC for 6 hours, then 30 J/M^2 UV, compared with 0.5 mM acetohexamide (FIG. 8E)
Protocol: A. WT and ΔXPA cells were either treated with DMSO or 0.5 mM acetohexamide for 6 hours. Cell cycle profiles were determined using propidium iodide (P1) staining followed by FACS analysis. B-D. Survival of WT HAP1 cells treated with either DMSO or 0.5 mM acetohexamide for 6 hours, followed by exposure to the indicated DNA damaging agents (MMC: mitomycin C; HU: hydroxyl urea; MMS: methyl methanesulfonate). Survival was assessed after 3 days using CellTitre-Glo. E. Cell viability of WT cells treated either with 0.5 mM acetohexamide or 30 μM N-acetylcysteine (NAC) for 6 hours, followed by 30 J/M^2 UV exposure.
(§1) For UV irradiation, cells were washed with PBS, trypsinized, counted and distributed in equal number then irradiated with different doses of UV as indicated. Finally, 1,000 cells were re-distributed into 96 well plates. After 72 hours, survival was measured using Cell Titer-Glo (Promega). Cells were irradiated with UVC using the UVP CX-2000 device (254 nm, Fisher Scientific).

ΔXPA cells = assay: Short-term survival after UV irradiation (CellTiter-Glo); type: cell-based, human; details: for protective effect of ΔXPA cells against UV (cell viability): different concentrations for 6 hours, then 10 J/M^2 UV (FIG. 10A-C)
From the text: A. Schematic representation of the experimental setup used to perform the high-throughput drug screen, where drugs were used at five-times maximal plasma concentration (CLOUD; CeMM library of unique drugs). B. Bubble plot displaying the drugs used plotted against cell viability. Light grey bubbles indicate wildtype (WT) cells, dark grey bubbles indicate XPA-deficient cells (ΔXPA). […] C. Chemical structure of acetohexamide. D. Dose-response curve of WT and ΔXPA cells treated with or without 0.5 mM acetohexamide for 6 hours, followed by UV irradiation. Survival was assessed after 3 days, using CellTiter-Glo. […] Error bars indicate SEM (n=3). E. Colony formation using the same conditions indicated in (D), where cells were kept in culture for 10 days following UV irradiation, following which they were fixed and stained.
A-C. Cell viability of ΔXPA cells treated with different concentrations of acetohexamide (aceto), gliclazide (GLC) and glimepiride (GLM) for 6 hours, followed by 10 J/M^2 of UV irradiation. D. Survival of WT and ΔXPA cells treated with or without 50 μM glibenclamide for 6 hours, followed by UV exposure. Survival was assessed after 3 days using CellTitre-Glo. E. Cell viability of ΔXPA cells treated with 10 μM of different derivatives of acetohexamide for 6 hours, followed by UV irradiation with 5 J/M^2.
as §1

| SMILES | protective effect of ΔXPA cells against UV (cell viability) (ΔXPA cells) | other results |
| --- | --- | --- |
| CC(=O)N[C@@H](CS)C(=O)O [N-acetylcysteine] |  | alleviating UV-induced sensitivity (cell viability) (WT cells): very minor effect in alleviating UV-induced sensitivity compared to acetohexamide |
| COc1ccc(Cl)cc1C(=O)NCCc1ccc(S(=O)(=O)NC(=O)NC2CCCCC2)cc1 [glibenclamide] |  | protective effect of ΔXPA cells against UV (survival) (ΔXPA cells; 50 μM for 6 hours, then UV, survival after 3 days (FIG. 10D)): Only glimepiride showed a protective effect |
| Cc1ccc(S(=O)(=O)NC(=O)NN2CC3CCCC3C2)cc1 (stereo not shown) [gliclazide] | Only glimepiride showed a protective effect |  |
| CCC1=C(C)CN(C(=O)NCCc2ccc(S(=O)(=O)NC(=O)N[C@H]3CC[C@H](C)CC3)cc2)C1=O [glimepiride] | showed a protective effect |  |
